Patent US20140378454A1, “NOVEL METHODS” (XSPRAY MICROPARTICLES AB, priority 2012, published 2014)
Where a name gives a salt, the structure may show the parent alone.

Columns and labels:
[1] = Dissolution rate measurement in sink conditions, flow through cell system, FaSSIF, 37° C.; type: physicochemical; details: sink condition in FaSSIF; for Initial Dissolution Rate: initial slope of accumulated % solubilized vs time, 0 to 10 minutes
Method: The temperature of the apparatus was set to 37° C. The amount of powder added into the cell depends on drug load of the powder: The exact amount of powder was calculated from results obtained from drug load analysis of the powders.
Typically, 3.5 to 7 mg PKI was added into the flow through cell and a flow rate between 8 and 16 ml medium/min (preferably about 8 ml medium/min) was pumped through the powder. One ml samples of the medium passing through the cell were collected at predetermined times. […] Samples were taken after 0, 0.5, 1, 1.5, 2, 3, 4, 5, 6, 7, 8, 9, 10, 15, 20, 25, 30, 35 and 40 min from the moment the medium comes out from the flow through cell. The accumulated % solubilized of the amount of active substance added into the flow through cell was calculated and plotted against time (min). The initial slope (“initial dissolution rate”) of the graph was estimated, as measured during 0 to 10 minutes, and taken as the dissolution rate of the material in sink condition at 37° C. in the given dissolution medium.

[2] = Dissolution measurement assay (apparent solubility) in FeSSIF, pH 5; type: physicochemical; details: for Conc (mg/L) 5 min: 5 minutes dissolution; for Conc (mg/L) 90 min: 90 minutes dissolution
Method: The method consists of adding the wished amount of powder of hybrid nanoparticles into a glass vial and then pouring in it the appropriate medium (typically FaSSIF, FeSSIF or SGF). The medium was prepared in accordance with the manufacturer's instructions. The amount of powder added depends on the wished “total PKI concentration”. […] For other experiments, the drug load was first estimated by HPLC and the amount of powder to obtain the drug concentration was calculated.
Typically, the powder was added in a 8 mL glass bottle and 7 mL of solution was added (typically FaSSIF, FeSSIF or SGF). The glass bottle was put on a shaker (approximately 1 rotation per minute) for dissolution. Samples of 500 μl where taken after different times, and subsequently centrifuged at approximately 15000 g for 3 minutes. The resulting supernatant was then analyzed by HPLC (C18 column Eclipse, 4.6 mm×15 cm, 1 mL/min, detection at 254-400 nM. Generally samples were taken after 5, 30 and 90 min and eventually 150 min.
A number of experiments were carried out, wherein nilotinib base or nilotinib HCl represented the protein kinase inhibitor. The experiments were carried out by measuring concentration of solubilized PKI (mg/L) after 5, 30 and 90 minutes dissolution in a solution at about pH 6.5, namely FaSSIF (Fasted State Simulated Intestinal Fluid). […] Samples of the solution were taken at various time intervals and the amount of protein kinase inhibitor was measured by the dissolution measurement assay described above.

[3] = In vivo measurement of plasma levels of nilotinib after oral (or iv) administration, neutralized or acidified stomach; set-up: species or system beagle dogs; details: constant rate IV infusion of 1 mg/kg, solution 0.2 mg/mL in 10% HPβCD, male dogs, Mean±SD
Method: Outliers were calculated and excluded based on if one value is a significant outlier from the rest at 95% confidence intervals (alpha=5%) according to Grubb's test. The critical Z value for the Grubb's test at the 95% confidence interval with n=4 is 1.48. Z=(Mean−Questionable value)/SD

[4] = concentration of nilotinib HCl, FeSSIF solution (pH 5)
[5] = concentration of erlotinib HCl, FeSSIF solution (pH 5)

Which “Initial Dissolution Rate” value [1] does the source give for `CNC(=O)c1cc(Oc2ccc(NC(=O)Nc3ccc(Cl)c(C(F)(F)F)c3)cc2)ccn1` [Exp 560, sorafenib tosylate] here?
Its value is 0.47.

Which “Conc (mg/L) 5 min” value [2, 4] does the source give for `Cc1cn(-c2cc(NC(=O)c3ccc(C)c(Nc4nccc(-c5cccnc5)n4)c3)cc(C(F)(F)F)c2)cn1` [Exp 41, Nilotinib HCl] here?
The value was 0.6 mg/L.

What about the “Conc (mg/L) 30 min” value ([2]; concentration of nilotinib HCl, FeSSIF solution (pH 5), 30 minutes dissolution) of the same molecule?
The value was 0.9 mg/L.

And the “Conc (mg/L) 90 min” value [2, 4]?
Its value is 0.9 mg/L.

What about the “% solubilized 30 min.” value ([2]; nilotinib HCl, FeSSIF solution (pH 5), 30 minutes dissolution) of the same molecule?
Its value is 0.18%.

And the “AUC/90 min Mg/min/L” value ([2]; nilotinib HCl, FeSSIF solution (pH 5), Area Under the Curve during 90 minutes dissolution)?
The value was 74.3 Mg/min/L.

For `COc1cc2ncnc(Nc3ccc(F)c(Cl)c3)c2cc1OCCCN1CCOCC1` [Exp 540, gefitinib], which “Initial Dissolution Rate” value [1] is on record?
Its value is 2.2.

Which results are given for `CNC(=O)c1cc(Oc2ccc(NC(=O)Nc3ccc(Cl)c(C(F)(F)F)c3)cc2)ccn1.Cc1ccc(S(=O)(=O)O)cc1` [Experiment 560]?
Accumulated % of solubilized of remaining active substance at a given time (min) ([1]; 0 min): 0.2%; Accumulated % of solubilized of remaining active substance at a given time (min) ([1]; 0.5 min): 0.4%; Accumulated % of solubilized of remaining active substance at a given time (min) ([1]; 1 min): 0.7%; Accumulated % of solubilized of remaining active substance at a given time (min) ([1]; 1.5 min): 1.0%; Accumulated % of solubilized of remaining active substance at a given time (min) ([1]; 2 min): 1.3%; Accumulated % of solubilized of remaining active substance at a given time (min) ([1]; 3 min): 1.8%; Accumulated % of solubilized of remaining active substance at a given time (min) ([1]; 4 min): 2.2%; Accumulated % of solubilized of remaining active substance at a given time (min) ([1]; 5 min): 2.6%; Accumulated % of solubilized of remaining active substance at a given time (min) ([1]; 6 min): 3.0%; Accumulated % of solubilized of remaining active substance at a given time (min) ([1]; 7 min): 3.4%; Accumulated % of solubilized of remaining active substance at a given time (min) ([1]; 8 min): 3.8%; Accumulated % of solubilized of remaining active substance at a given time (min) ([1]; 9 min): 4.2%; Accumulated % of solubilized of remaining active substance at a given time (min) ([1]; 10 min): 4.6%; Accumulated % of solubilized of remaining active substance at a given time (min) ([1]; 20 min): 8.8%; Accumulated % of solubilized of remaining active substance at a given time (min) ([1]; 30 min): 12.6%; Accumulated % of solubilized of remaining active substance at a given time (min) ([1]; 40 min): 16.4%

What does the source list for `Cc1cn(-c2cc(NC(=O)c3ccc(C)c(Nc4nccc(-c5cccnc5)n4)c3)cc(C(F)(F)F)c2)cn1` [Nilotinib]?
AUC(0-t) ([3]; beagle, dog, plasma, read-out: AUC0-24 hr): 1 ± 0.3 µg·h/mL; half-life ([3]; beagle, dog, plasma, read-out: T½ (converted)): 3.3 ± 1.8 h; Co [3]: 511 ± 46 ng/mL

With `CS(=O)(=O)CCNCc1ccc(-c2ccc3ncnc(Nc4ccc(OCc5cccc(F)c5)c(Cl)c4)c3c2)o1` [Exp 530, lapatinib ditosylate] as the molecule, how does the “Initial Dissolution Rate” value [1] read?
The value was 0.103.

With `C#Cc1cccc(Nc2ncnc3cc(OCCOC)c(OCCOC)cc23)c1` [Exp 69, Erlotinib HCl] as the molecule, how does the “Conc (mg/L) 5 min” value [2, 5] read?
Its value is 156.8 mg/L.

What about the “Conc (mg/L) 30 min” value ([2]; concentration of erlotinib HCl, FeSSIF solution (pH 5), 30 minutes dissolution) of the same molecule?
Its value is 189.9 mg/L.

What about the “Conc (mg/L) 90 min” value [2, 5] of the same molecule?
The value was 196 mg/L.

What about the “% solubilized 30 min.” value ([2]; erlotinib HCl, FeSSIF pH 5, 30 min dissolution) of the same molecule?
The value was 19.0%.

What about the “AUC/90 min Mg/min/L” value ([2]; erlotinib HCl, FeSSIF pH 5, during 90 min dissolution) of the same molecule?
The value was 16303 Mg/min/L.

Which “Initial Dissolution Rate” value [1] does the source give for `C#Cc1cccc(Nc2ncnc3cc(OCCOC)c(OCCOC)cc23)c1` [Exp 510, erlotinib HCl] here?
Its value is 0.303.

For `C[C@@H](Oc1cc(-c2cnn(C3CCNCC3)c2)cnc1N)c1c(Cl)ccc(F)c1Cl` [Exp 570, crizotinib], which “Initial Dissolution Rate” value [1] is on record?
Its value is 6.6.

Which “Initial Dissolution Rate” value [1] does the source give for `Cc1cn(-c2cc(NC(=O)c3ccc(C)c(Nc4nccc(-c5cccnc5)n4)c3)cc(C(F)(F)F)c2)cn1` [Exp 500, nilotinib HCl] here?
Its value is 0.27.
